Drawing on DBAASP, this text covers MIC for ten molecules.

Values after ≈ are worked out from the molar mass of the structure shown. Values joined by “and” are separate entries in the source; they are usually repeats but may differ in a detail not shown here. Equal entries are not always repeated.

Common to all, as to assay: ≥ marks a high value that may be exact or a test limit, other limits are often not marked, values filed in µg/mL are converted to µM
Test [1] relates to Staphylococcus aureus ATCC 43300.
For test [2], the system named is Escherichia coli K88.
In test [3] the test system is Salmonella enterica subsp. enterica serovar Pullorum ATCC 7913.
Test [4] concerns Candida tropicalis CGMCC 2.1975.
In test [5] the test system is Candida parapsilosis CGMCC 2.3989.
In test [6] the test system is Salmonella enterica subsp. enterica serovar Typhimurium ATCC 14028.
Test [7] deals with Pseudomonas aeruginosa ATCC 27853.
In test [8] the test system is Staphylococcus epidermidis ATCC 12228.
Test [9] concerns Escherichia coli 078.
In test [10] the test system is Salmonella enterica subsp. enterica serovar Typhimurium C77-31.
The test system of test [11] is Staphylococcus aureus ATCC 25923.
Test [12] deals with Escherichia coli K99.
The test system of test [13] is Escherichia coli UB1005.
Test [14] concerns Micrococcus luteus ATCC 4698.
For test [15], the system named is Klebsiella pneumoniae ATCC 700603.
For test [16], the system named is Pseudomonas aeruginosa ATCC 10145.
In test [17] the test system is Escherichia coli MG1655.
Test [18] relates to Candida albicans CGMCC 2.2086.
Test [19] relates to Candida albicans.
Test [20] has as its system Legionella pneumophila Lens.

A word on the MIC: it is the least concentration at which growth counts as inhibited. High values mean weaker potency, low ones greater potency. As for `CC[C@H](C)[C@H](NC(=O)[C@H](CCCN=C(N)N)NC(=O)[C@H](C)NC(=O)[C@H](C)N)C(=O)N[C@H](C(=O)N[C@@H](CC(C)C)C(=O)N[C@@H](CCCN=C(N)N)C(=O)N[C@@H](Cc1c[nH]c2ccccc12)C(=O)N[C@@H](Cc1ccccc1)C(=O)N[C@@H](CCCN=C(N)N)C(=O)N[C@@H](CCCN=C(N)N)C(N)=O)[C@@H](C)CC` [AARIILRWFRR], the minimum inhibitory concentration (MIC) was determined as 8 µM (≈ 11.7 µg/mL) in [1]; 2 µM (≈ 2.91 µg/mL) in test [2]; 4 µM (≈ 5.83 µg/mL) in test [3]; 4 µM (≈ 5.83 µg/mL) in test [4]; 4 µM (≈ 5.83 µg/mL) in [5]; 4 µM (≈ 5.83 µg/mL) in test [6]. The minimum inhibitory concentration (MIC) in [7] is 8 µM (≈ 11.7 µg/mL); in [8], 2 µM (≈ 2.91 µg/mL); in [9], 1.37 µM (≈ 2 µg/mL); in test [10], 4 µM (≈ 5.83 µg/mL); in test [11], 8 µM (≈ 11.7 µg/mL); in test [12], 2 µM (≈ 2.91 µg/mL). Also, the MIC in test [13] was 2 µM (≈ 2.91 µg/mL).

As for `CC(C)C[C@@H]1NC(=O)[C@H](CCCN=C(N)N)NC(=O)[C@H](CCCCN)NC(=O)[C@H](Cc2c[nH]c3ccccc23)NC(=O)CNC(=O)CNC(=O)[C@@H](N)CSSC[C@@H](C(=O)O)NC(=O)[C@H](CCCN=C(N)N)NC1=O` [CGGWKRLRC], in test [14], the MIC worked out at 13 µM (≈ 14 µg/mL).

In the case of `CC(C)C[C@H](NC(=O)[C@H](Cc1ccc(O)cc1)NC(=O)[C@H](Cc1cnc[nH]1)NC(=O)[C@H](CCCCN)NC(=O)[C@H](CC(C)C)NC(=O)[C@H](C)NC(=O)[C@H](CC(C)C)NC(=O)[C@H](CCCCN)NC(=O)CNC(=O)[C@@H](NC(=O)[C@@H](NC(=O)[C@H](CCCCN)NC(=O)[C@@H](NC(=O)[C@H](CCC(=O)O)NC(=O)[C@H](C)NC(=O)[C@H](CCCCN)NC(=O)[C@H](CCCCN)NC(=O)[C@H](CC(C)C)NC(=O)[C@H](CC(C)C)NC(=O)[C@@H](NC(=O)[C@H](CCCCN)NC(=O)[C@H](Cc1c[nH]c2ccccc12)NC(=O)CN)[C@@H](C)O)C(C)C)[C@@H](C)O)C(C)C)C(=O)O` [GWKTLLKKAEVKTVGKLALKHYL], the minimal inhibitory concentration (MIC) in test [15] was more than 9.3 µM; in [16], 0.29 µM (≈ 0.761 µg/mL); in test [17], 9.3 µM (≈ 24.4 µg/mL); in test [11], 2.32 µM (≈ 6.09 µg/mL).

Take `CC[C@H](C)[C@H](NC(=O)CNC(=O)[C@H](CCCCN)NC(=O)[C@H](Cc1ccccc1)NC(=O)[C@H](CC(C)C)NC(=O)[C@H](CC(C)C)NC(=O)[C@H](Cc1ccccc1)NC(=O)[C@H](CCCCN)NC(=O)CNC(=O)[C@@H](NC(=O)[C@@H](N)CCCCN)[C@@H](C)CC)C(=O)N[C@@H](CCCCN)C(=O)N[C@@H](CCCCN)C(=O)N[C@H](C(=O)NCC(=O)N[C@@H](CCCCN)C(=O)N[C@@H](Cc1ccccc1)C(=O)N[C@@H](CC(C)C)C(N)=O)[C@@H](C)CC` [KIGKFLLFKGIKKIGKFL]: the MIC is not below 32 µM in [18], 8 µM (≈ 16.6 µg/mL) in test [4], 32 µM (≈ 66.5 µg/mL) in test [19] and not below 32 µM in test [5].

Regarding `CC[C@H](C)[C@H](NC(=O)CNC(=O)[C@H](CCCCN)NC(=O)[C@@H](NC(=O)[C@H](CC(C)C)NC(=O)[C@H](CC(C)C)NC(=O)[C@@H](NC(=O)[C@H](CCCCN)NC(=O)CNC(=O)[C@@H](NC(=O)[C@@H](N)CCCCN)[C@@H](C)CC)C(C)C)C(C)C)C(=O)N[C@@H](CCCCN)C(=O)N[C@@H](CCCCN)C(=O)N[C@H](C(=O)NCC(=O)N[C@@H](CCCCN)C(=O)N[C@H](C(=O)N[C@@H](CC(C)C)C(N)=O)C(C)C)[C@@H](C)CC` [KIGKVLLVKGIKKIGKVL], the MIC was not below 32 µM in test [18]; 16 µM (≈ 30.9 µg/mL) in test [4]; > 64 µM and 32 µM in [19]; not below 32 µM in test [5].

As to `CC[C@H](C)[C@H](NC(=O)[C@H](CC(C)C)NC(=O)CNC(=O)[C@H](CCCCN)NC(=O)[C@@H](NC(=O)[C@@H](NC(=O)[C@H](CCC(=O)O)NC(=O)[C@@H](NC(=O)[C@@H](NC(=O)[C@H](CCCCN)NC(=O)[C@H](C)NC(=O)[C@@H](NC(=O)[C@@H](NC(=O)[C@H](CC(=O)O)NC(=O)[C@H](C)NC(=O)[C@@H](N)CCSC)C(C)C)[C@@H](C)CC)[C@@H](C)CC)C(C)C)[C@@H](C)CC)C(C)C)C(=O)N[C@@H](CC(=O)O)C(=O)N[C@@H](CCC(N)=O)C(=O)N[C@@H](Cc1ccccc1)C(=O)N[C@H](C(=O)N[C@@H](CCC(N)=O)C(=O)N[C@@H](CCCCN)C(=O)O)[C@@H](C)O` [MADVIAKIVEIVKGLIDQFTQK], in test [20], the MIC came out at 1.27 µM (≈ 3.12 µg/mL).

On to `CC[C@H](C)[C@H](NC(=O)[C@H](CC(C)C)NC(=O)[C@H](CCCCN)NC(=O)[C@H](CCCCN)NC(=O)[C@@H](NC(=O)[C@@H](NC(=O)[C@H](CCC(=O)O)NC(=O)[C@@H](NC(=O)[C@@H](NC(=O)[C@H](CCCCN)NC(=O)[C@H](C)NC(=O)[C@@H](NC(=O)[C@@H](NC(=O)CNC(=O)[C@H](C)NC(=O)[C@@H](N)CCSC)C(C)C)[C@@H](C)CC)[C@@H](C)CC)C(C)C)[C@@H](C)CC)C(C)C)C(=O)N[C@@H](CC(=O)O)C(=O)N[C@@H](CCC(N)=O)C(=O)N[C@@H](Cc1ccccc1)C(=O)N[C@H](C(=O)N[C@@H](CCC(N)=O)C(=O)N[C@@H](CCCCN)C(=O)O)[C@@H](C)O` [MAGVIAKIVEIVKKLIDQFTQK], for which the MIC in [20] came to 0.94 µM (≈ 2.32 µg/mL).

`CC[C@H](C)[C@H](NC(=O)[C@H](CC(C)C)NC(=O)[C@H](CC(=O)O)NC(=O)[C@@H](NC(=O)[C@@H](NC(=O)[C@H](Cc1ccccc1)NC(=O)[C@H](CCC(N)=O)NC(=O)[C@@H](N)CCSC)[C@@H](C)CC)[C@@H](C)O)C(=O)NCC(=O)N[C@@H](CCCCN)C(=O)N[C@@H](C)C(=O)N[C@H](C(=O)N[C@@H](CC(=O)O)C(=O)N[C@@H](Cc1ccccc1)C(=O)N[C@@H](Cc1ccccc1)C(=O)N[C@@H](CCCCN)C(=O)NCC(=O)N[C@@H](CC(C)C)C(=O)N[C@@H](Cc1ccccc1)C(=O)NCC(=O)N[C@@H](CC(N)=O)C(=O)N[C@@H](CCCCN)C(=O)O)C(C)C` [MQFITDLIGKAVDFFKGLFGNK] yielded a minimum inhibitory concentration (MIC) in [20] of 3.7 µM (≈ 9.21 µg/mL). This MIC is about 3.9-fold higher than that of the molecule before.

In turn, `CC[C@H](C)[C@H](NC(=O)[C@H](C)NC(=O)[C@H](CCCCN)NC(=O)[C@@H](NC(=O)[C@@H](NC(=O)[C@H](CCC(=O)O)NC(=O)[C@@H](NC(=O)[C@@H](NC(=O)[C@H](CCCCN)NC(=O)CNC(=O)[C@H](CC(C)C)NC(=O)[C@@H](NC(=O)[C@H](CC(=O)O)NC(=O)[C@H](CCC(N)=O)NC(=O)[C@H](Cc1ccccc1)NC(=O)[C@@H](NC(=O)[C@H](CCC(N)=O)NC(=O)[C@@H](N)CCSC)[C@@H](C)O)[C@@H](C)CC)C(C)C)[C@@H](C)CC)C(C)C)[C@@H](C)CC)C(=O)N[C@H](C(=O)N[C@@H](CC(=O)O)C(=O)N[C@@H](C)C(=O)N[C@@H](CCCCN)C(=O)O)C(C)C` [MQTFQDILGKVIEVIKAIVDAK] displayed a minimal inhibitory concentration (MIC) in test [20] of 5.08 µM (≈ 12.5 µg/mL).

On to `CC[C@H](C)[C@H](NC(=O)CNC(=O)[C@H](CCCN=C(N)N)NC(=O)[C@H](Cc1ccccc1)NC(=O)[C@H](CC(C)C)NC(=O)[C@H](CC(C)C)NC(=O)[C@H](Cc1ccccc1)NC(=O)[C@H](CCCN=C(N)N)NC(=O)CNC(=O)[C@@H](NC(=O)[C@@H](N)CCCN=C(N)N)[C@@H](C)CC)C(=O)N[C@@H](CCCN=C(N)N)C(=O)N[C@@H](CCCN=C(N)N)C(=O)N[C@H](C(=O)NCC(=O)N[C@@H](CCCN=C(N)N)C(=O)N[C@@H](Cc1ccccc1)C(=O)N[C@@H](CC(C)C)C(N)=O)[C@@H](C)CC` [RIGRFLLFRGIRRIGRFL], for which the MIC in test [18] is 8 µM (≈ 18 µg/mL); in test [4], 8 µM (≈ 18 µg/mL); in [19] it was 8 µM and 5.66 µM; in test [5], 16 µM (≈ 35.9 µg/mL).
